Target: T1, MLK-7 (Homo sapiens, UniProt Q9NYL2)
T1 construct: GST; His tag; made in house; host or cells: Sf9 insect cells (baculovirus, pVL1392)
Test: In vitro assay of purified MLK-7 kinase activity (33P transfer from ATP to myelin basic protein)
Type: biochemical
Conditions: recombinant GST-tagged MLK-7 at 1 nm, 30 uM ATP, 5 uM MBP substrate, 2 hours room temperature; read-out: MLK7 IC50
Description: In Vitro Assay of Purified Mixed Lineage Kinase 7 (MLK-7) Activity:
Briefly, recombinant glutathione-s-transferase (GST) tagged MLK-7 is expressed in Sf9 cells using a recombinant baculovirus created using baculovirus transfer vector pVL1392 modified to contain a GST and histidine tag. The recombinant protein is purified over a glutathione column and subsequently used for in vitro kinase assays with myelin basic protein (MBP) as the substrate for phosphorylation. The in vitro kinase reaction is run with recombinant MLK-7 at 1 nm and various concentrations of test compound in a reaction mixture containing 2 mM DTT, 30 uM ATP, 5 mM MgCl2, 5 uM MBP, 4% DMSO, 5 uCi 33P in 44 mM HEPES, (pH 7.4). The reaction is carried out for 2 hours at room temperature and then stopped by the addition of phosphoric acid to 5.5%. The phosphorylated MBP is collected on a filter and radioactivity associated with the membrane measured using a scintillation counter. Inhibitors are identified by the ability to reduce the transfer of radioactive phosphate from ATP to MBP compared to controls run without test compound.
IC50 values, defined as the concentration of test compound required to decrease the transfer of radioactive phosphate from ATP to MBP by 50%, are then determined. Ki values (which refers to the dissociation constant of an enzyme-antagonist complex and serves as an index of ligand binding) for each respective test compound can also be calculated by application of the Cheng-Prusoff equation as described in Cheng et al., Relationship Between The Inhibition Constant (Ki) and The Concentration of Inhibitor Which Causes 50% Inhibition (IC50) of an Enzymatic Reaction, Biochem. Pharmacol., 22: […]; (1973).
Representative compounds of the present invention have an IC50 in the MLK-7 kinase assay of ≦10,000 nM Table I (see infra.) provides IC50 data from the afore mentioned MLK-7 kinase assay for a representative sample of the exemplified compounds of the present invention.

Compound “2-[4-(2-Pyridin-2-yl-5,6-dihydro-4H-pyrrolo[1,2-b]pyrazol-3-yl)quinolin-7-yl]phenyl}benzamide Trifluoroacetic Acid [Example 29]” has an IC50 of at most 10000 nM.
For “4-[4-(2-Pyridin-2-yl-5,6-dihydro-4H-pyrrolo[1,2-b]pyrazol-3-yl]phenylamine Ditrifluoroacetic Acid [Example 10]”, the IC50 was at most 100 nM.
For “5-[4-(2-pyridin-2-yl-5,6-dihydro-4H-pyrrolo[1,2-b]pyrazol-3-yl)-7-pyrimidin-5-yl-quinolin-7-yl]pyrimidin-2-ylamine Difluoroacetic Acid [Example 89]”, the IC50 was at most 1000 nM.
“7-(3,5-Dichlorophenyl)-4-(2-Pyridin-2-yl-5,6-dihydro-4H-pyrrolo[1,2-b]pyrazol-3-yl)quinoline Trifluoroacetic Acid [Example 31]” showed an IC50 of at most 1000 nM.
In the case of “7-(3-Nitrophenyl)-4-(2-pyridin-2-yl-5,6-dihydro-4H-pyrrolo[1,2-b]pyrazol-3-yl)quinoline Trifluoroacetic Acid [Example 49]”, the IC50 is reported as at most 100 nM.
Compound “7-(4-Benzo[b]thiophen-3-yl-phenyl)-4-(2-pyridin-2-yl-5,6-dihydro-4H-pyrrolo[1,2-b]pyrazol-3-yl)-quinoline Trifluoroacetic Acid [Example 54]” has an IC50 of at most 1000 nM.
With “7-(4-Methyl-3-nitro-phenyl)-4-(2-pyridin-2-yl-5,6-dihydro-4H-pyrrolo[1,2-b]pyrazol-3-yl)-quinoline Trifluoroacetic Acid [Example 52]” the IC50 was at most 100 nM.
Work on `CC(C)(C)SCCNC(=O)c1ccc(-c2ccc3c(-c4c(-c5ccccn5)nn5c4CCC5)ccnc3c2)cc1` (racemic) [Example 127, (rac) N-(2-tert-Butylsulfanyl-ethyl)-4-[4-(2-pyridin-2-yl-5,6-dihydro-4H-pyrrolo[1,2-b]pyrazol-3-yl)-quinolin-7-yl]-benzamide] yielded an IC50 of at most 1000 nM.
`O=C(NC1CCS(=O)(=O)C1)c1ccc(-c2ccc3c(-c4c(-c5ccccn5)nn5c4CCC5)ccnc3c2)cc1` (racemic) [Example 129, (rac)-N-(1,1-Dioxo-tetrahydro-1λ^6-thiophen-3-yl)-4-[4-(2-pyridin-2-yl-5,6-dihydro-4H-pyrrolo[1,2-b]pyrazol-3-yl)-quinolin-7-yl]-benzamide] was tested, and the IC50 was at most 100 nM.
In the case of `Cc1csc(-c2ccc3c(-c4c(-c5ccccn5)nn5c4CCC5)ccnc3c2)c1` [Example 2, 7-(4-methylthiophen-2-yl)-4-(2-pyridin-2-yl-5,6-dihydro-4H-pyrrolo[1,2-b]pyrazol-3-yl)quinoline Trifluoroacetic Acid], the IC50 is reported as at most 100 nM.
Work on `CC(=O)Nc1ccc(-c2ccc3c(-c4c(-c5ccccn5)nn5c4CCC5)ccnc3c2)cc1` [Example 3] yielded an IC50 of at most 100 nM.
With `c1ccc(-c2ccc3c(-c4c(-c5ccccn5)nn5c4CCC5)ccnc3c2)cc1` [Example 4, 7-Phenyl-4-(2-pyridin-2-yl-5,6-dihydro-4H-pyrrolo[1,2-b]pyrazol-3-yl)quinoline Trifluoroacetic Acid] the IC50 was at most 100 nM.
In the case of `Oc1ccccc1-c1ccc2c(-c3c(-c4ccccn4)nn4c3CCC4)ccnc2c1` [Example 5], the IC50 is reported as at most 1000 nM.
`Oc1cccc(-c2ccc3c(-c4c(-c5ccccn5)nn5c4CCC5)ccnc3c2)c1` [Example 6, 3-[4-(2-Pyridin-2-yl-5,6-dihydro-4H-pyrrolo[1,2-b]pyrazol-3-yl)quinolin-7-yl]phenol Trifluoroacetic Acid] showed an IC50 of at most 100 nM.
For `Oc1ccc(-c2ccc3c(-c4c(-c5ccccn5)nn5c4CCC5)ccnc3c2)cc1` [Example 7, 4-[4-(2-Pyridin-2-yl-5,6-dihydro-4H-pyrrolo[1,2-b]pyrazol-3-yl)quinolin-7-yl]phenol Trifluoroacetic Acid], the IC50 was at most 100 nM.
`Nc1ccccc1-c1ccc2c(-c3c(-c4ccccn4)nn4c3CCC4)ccnc2c1` [Example 8, 2-[4-(2-Pyridin-2-yl-5,6-dihydro-4H-pyrrolo[1,2-b]pyrazol-3-yl)quinolin-7-yl]phenylamine Ditrifluoroacetic Acid] was tested, and the IC50 was at most 1000 nM.
Work on `Nc1cccc(-c2ccc3c(-c4c(-c5ccccn5)nn5c4CCC5)ccnc3c2)c1` [Example 9] yielded an IC50 of at most 100 nM.
